Measured values from patent US8987268B2, “Pyrrolopyridazine JAK3 inhibitors and their use for the treatment of inflammatory and autoimmune diseases” (Bristol-Myers Squibb Company, priority 2011, dated 2015).

Legend:
GST-JAK3 enzyme = GST-JAK3 enzyme (Homo sapiens (Human), UniProt P52333); assay: JAK3 Kinase Assay Protocol (Caliper); assay type: biochemical; details: JAK3 kinase inhibition; read-out: LLE_JAK3_FB (IC50)
Method: JAK3 Kinase Assay Protocol (Caliper)
(§1) The assay reactions were performed in U-bottom 384-well plates. […] The reaction was initiated by the combination of GST-JAK3 enzyme with substrates and test compounds. The reactions were incubated at room temperature for 3 hours and terminated by adding 60 μl of 35 mM EDTA to each sample. Each reaction mixture was analyzed on the Caliper LabChip 3000 (Caliper, Hopkinton, Mass.) by electrophoretic separation of the fluorescent substrate and phosphorylated product. […] Compounds were dissolved at 10 mM in dimethylsulfoxide (DMSO) and evaluated at eleven concentrations. IC50 values were derived by non-linear regression analysis.

GST-JAK1 enzyme = GST-JAK1 enzyme (Homo sapiens (Human), UniProt P23458); assay: JAK1 Kinase Assay Protocol; assay type: biochemical; details: JAK1 kinase inhibition; read-out: LLE_JAK1 (IC50)
Method: JAK1 Kinase Assay Protocol
as §1, with “GST-JAK1” for “GST-JAK3”

Chain of GST-JAK3 enzyme (P52333 whole entry): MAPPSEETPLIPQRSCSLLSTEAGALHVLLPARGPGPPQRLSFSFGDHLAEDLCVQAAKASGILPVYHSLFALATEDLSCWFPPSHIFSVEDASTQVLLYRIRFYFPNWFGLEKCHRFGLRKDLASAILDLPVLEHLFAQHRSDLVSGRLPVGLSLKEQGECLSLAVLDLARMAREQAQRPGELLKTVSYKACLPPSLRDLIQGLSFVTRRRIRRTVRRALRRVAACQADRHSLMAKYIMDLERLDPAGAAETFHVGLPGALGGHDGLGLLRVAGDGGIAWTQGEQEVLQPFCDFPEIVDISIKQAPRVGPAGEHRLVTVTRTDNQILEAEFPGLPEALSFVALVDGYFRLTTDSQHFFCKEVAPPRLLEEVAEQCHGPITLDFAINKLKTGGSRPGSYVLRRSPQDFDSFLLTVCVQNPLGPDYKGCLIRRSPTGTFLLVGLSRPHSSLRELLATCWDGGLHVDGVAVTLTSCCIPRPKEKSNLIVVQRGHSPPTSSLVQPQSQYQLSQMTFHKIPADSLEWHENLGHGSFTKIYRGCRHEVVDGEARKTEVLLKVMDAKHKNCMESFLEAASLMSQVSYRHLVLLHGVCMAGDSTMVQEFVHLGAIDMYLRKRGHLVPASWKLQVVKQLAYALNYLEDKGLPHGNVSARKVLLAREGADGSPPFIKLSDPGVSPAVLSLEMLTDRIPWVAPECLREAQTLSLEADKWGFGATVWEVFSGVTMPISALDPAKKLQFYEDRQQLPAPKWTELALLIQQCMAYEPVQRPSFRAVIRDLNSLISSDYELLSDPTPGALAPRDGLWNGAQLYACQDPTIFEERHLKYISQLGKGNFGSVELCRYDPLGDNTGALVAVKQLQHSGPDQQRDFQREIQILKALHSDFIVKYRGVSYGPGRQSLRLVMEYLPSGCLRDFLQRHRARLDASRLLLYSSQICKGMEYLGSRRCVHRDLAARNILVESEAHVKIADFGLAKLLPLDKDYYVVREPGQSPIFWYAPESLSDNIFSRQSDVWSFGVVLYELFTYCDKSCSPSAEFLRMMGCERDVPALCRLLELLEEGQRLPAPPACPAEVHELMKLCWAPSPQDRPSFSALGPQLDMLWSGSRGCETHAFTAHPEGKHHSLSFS
Chain of GST-JAK1 enzyme (P23458 whole entry): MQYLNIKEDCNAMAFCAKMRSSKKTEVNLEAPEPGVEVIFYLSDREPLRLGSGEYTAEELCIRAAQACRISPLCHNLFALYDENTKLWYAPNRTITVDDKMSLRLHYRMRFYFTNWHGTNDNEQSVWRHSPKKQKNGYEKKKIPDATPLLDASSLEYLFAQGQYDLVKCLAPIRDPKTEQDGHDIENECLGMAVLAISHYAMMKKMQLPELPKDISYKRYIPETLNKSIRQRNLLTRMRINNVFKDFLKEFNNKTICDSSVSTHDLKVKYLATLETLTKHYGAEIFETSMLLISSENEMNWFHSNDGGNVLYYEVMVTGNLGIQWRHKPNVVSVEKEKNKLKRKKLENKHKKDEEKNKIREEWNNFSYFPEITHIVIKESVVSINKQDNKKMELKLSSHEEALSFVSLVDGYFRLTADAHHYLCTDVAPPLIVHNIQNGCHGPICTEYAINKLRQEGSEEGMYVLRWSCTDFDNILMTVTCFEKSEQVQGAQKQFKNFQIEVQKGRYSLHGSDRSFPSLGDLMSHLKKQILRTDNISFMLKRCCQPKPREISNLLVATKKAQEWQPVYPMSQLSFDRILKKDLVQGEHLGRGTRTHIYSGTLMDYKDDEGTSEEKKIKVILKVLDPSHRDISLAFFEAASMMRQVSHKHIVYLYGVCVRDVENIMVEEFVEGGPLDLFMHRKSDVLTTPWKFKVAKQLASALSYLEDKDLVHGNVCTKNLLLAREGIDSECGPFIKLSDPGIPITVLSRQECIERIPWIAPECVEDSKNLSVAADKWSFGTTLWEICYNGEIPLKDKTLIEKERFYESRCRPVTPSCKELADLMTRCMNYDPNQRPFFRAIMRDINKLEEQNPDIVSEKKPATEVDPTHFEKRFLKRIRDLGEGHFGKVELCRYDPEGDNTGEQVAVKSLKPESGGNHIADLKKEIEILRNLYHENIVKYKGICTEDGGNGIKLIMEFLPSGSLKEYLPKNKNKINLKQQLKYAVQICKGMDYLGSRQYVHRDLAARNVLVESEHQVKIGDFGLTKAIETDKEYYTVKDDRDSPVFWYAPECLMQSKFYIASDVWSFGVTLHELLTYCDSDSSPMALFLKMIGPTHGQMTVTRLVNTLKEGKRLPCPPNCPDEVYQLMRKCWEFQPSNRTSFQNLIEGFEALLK

Structure (SMILES) | IC50 (GST-JAK3 enzyme) [nM] | IC50 (GST-JAK1 enzyme) [nM]
C[C@H]1CN(C(=O)CC#N)C[C@H]1Nc1c(C(N)=O)cnn2cc(-c3ccnc(F)c3)cc12 [Example 201, 4-(((3S,4S)-1-(2-cyanoacetyl)-4-methylpyrrolidin-3-yl)amino)-6-(2-fluoropyridin-4-yl)pyrrolo[1,2-b]pyridazine-3-carboxamide] | 1.4 | 0.5
CCOc1ncc(-c2cc3c(N[C@@H]4CN(C(=O)C5(C#N)CC5)C[C@@H]4CF)c(C(N)=O)cnn3c2)cn1 [Example 281, 4-((3S,4S)-1-(1-cyanocyclopropanecarbonyl)-4-(fluoromethyl)pyrrolidin-3-ylamino)-6-(2-ethoxypyrimidin-5-yl)pyrrolo[1,2-b]pyridazine-3-carboxamide] | 11.8 | 1.8
NC(=O)c1cnn2cc(-c3cncc(F)c3)cc2c1NC1CCOCC1 [Example 29, 6-(5-fluoro-3-pyridinyl)-4-(tetrahydro-2H-pyran-4-ylamino)pyrrolo[1,2-b]pyridazine-3-carboxamide] | 70 | 120
CC[C@@H]1CN(C(=O)[C@H](C)O)CC[C@H]1Nc1c(C(N)=O)cnn2cc(-c3ccnc(OC)c3)cc12 [Example 134, 4-((3R,4R)-3-ethyl-1-((S)-2-hydroxypropanoyl)piperidin-4-ylamino)-6-(2-methoxypyridin-4-yl)pyrrolo[1,2-b]pyridazine-3-carboxamide] | 7 | 4.5
